Measurements taken from patent US20090264469A1, “NOVEL DICARBOXYLIC ACID DERIVATIVES” (BIO-PROJET, priority 2004, published 2009).

Tests used:
circulating lymphocytes = details: in vivo; cited from earlier work
[1] = J. Am. Soc. Nephrol., 13, 1073, 2002; cited from earlier work
Human S1P3 receptor = target: T1, Human S1P3 receptor (Homo sapiens, UniProt Q99500); experiment: GTP-γ-35S binding, agonist activity on S1P3 receptor; format: biochemical; details: for EC50: membranes of transfected HEK 293 or CHOK1 cells, [35S]GTP-γ-S binding; for intrinsic activity (i.a.) S1P3: relative to the maximal stimulation elicited by S1P
T1 construct: expressed in transfected cells; host or cells: HEK 293 or CHOK1 cells (membranes)
T1 sequence (Q99500 whole entry): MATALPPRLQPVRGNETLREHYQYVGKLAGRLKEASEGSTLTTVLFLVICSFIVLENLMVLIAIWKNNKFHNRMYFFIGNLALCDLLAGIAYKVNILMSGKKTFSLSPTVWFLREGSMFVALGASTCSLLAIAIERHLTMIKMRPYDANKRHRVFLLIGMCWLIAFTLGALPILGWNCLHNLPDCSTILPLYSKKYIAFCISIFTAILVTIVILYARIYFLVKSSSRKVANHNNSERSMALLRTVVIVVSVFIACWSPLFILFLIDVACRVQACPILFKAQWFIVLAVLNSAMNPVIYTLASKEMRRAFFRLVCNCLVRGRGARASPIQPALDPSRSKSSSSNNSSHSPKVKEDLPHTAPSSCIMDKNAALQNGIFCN
Text: (§1) Human S1P1-5 receptor subtypes were stably expressed in HEK 293 or CHOK1 cells following transfection with corresponding plasmid constructs. Although the native cells somewhat respond to S1P, the level of expression and responsiveness of the antibiotic-resistant transfected cell lines that were selected is much higher.
(§2) When cultivated cells reached 80% confluence, they were collected and, after lysis, cell membranes were collected by centrifugation and washed in buffer containing antiproteases.
(§3) GTP-γ-35 S binding was performed using ˜5 μg protein of cell membranes suspended in 50 mM tris-HCl pH 7.5 containing 10 mM Mg Cl2, 100 mM NaCl and 10 μM GDP. The radioligand was 0.025 nM [35S] GTP-γ-S and non specific binding determined in the presence of 10 μM non-radioactive GTP-γ-S. S1P and receptor agonists enhance the specific binding whereas inverse agonists reduce it. The maximal stimulation elicited by S1P was taken as a reference to define full or partial agonism and calculate the intrinsic activity (i.a.) of compounds.

Human S1P1 receptor = target: T2, Human S1P1 receptor (Homo sapiens, UniProt P21453); experiment: GTP-γ-35S binding, agonist activity on S1P1 receptor; format: biochemical; details: for EC50: membranes of transfected HEK 293 or CHOK1 cells, [35S]GTP-γ-S binding; for intrinsic activity (i.a.) S1P1: relative to the maximal stimulation elicited by S1P
T2 construct: expressed in transfected cells; host or cells: HEK 293 or CHOK1 cells (membranes)
T2 sequence (P21453 whole entry): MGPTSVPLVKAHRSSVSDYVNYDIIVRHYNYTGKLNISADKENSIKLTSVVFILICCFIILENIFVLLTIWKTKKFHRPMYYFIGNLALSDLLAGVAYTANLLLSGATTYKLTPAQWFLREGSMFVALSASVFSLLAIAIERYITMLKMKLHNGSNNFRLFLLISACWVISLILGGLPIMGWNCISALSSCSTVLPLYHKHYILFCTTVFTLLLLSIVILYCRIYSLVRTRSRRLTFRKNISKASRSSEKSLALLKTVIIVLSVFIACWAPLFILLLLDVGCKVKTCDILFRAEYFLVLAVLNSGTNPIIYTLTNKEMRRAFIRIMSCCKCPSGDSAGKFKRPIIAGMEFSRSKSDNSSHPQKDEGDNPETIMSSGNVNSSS
Text: as §1, §2, §3

Human S1P2 receptor = target: T3, Human S1P2 receptor (Homo sapiens, UniProt O95136); experiment: GTP-γ-35S binding, agonist activity on S1P2 receptor; format: biochemical; details: for EC50: membranes of transfected HEK 293 or CHOK1 cells, [35S]GTP-γ-S binding; for intrinsic activity (i.a.) S1P2: relative to the maximal stimulation elicited by S1P
T3 construct: expressed in transfected cells; host or cells: HEK 293 or CHOK1 cells (membranes)
T3 sequence (O95136 whole entry): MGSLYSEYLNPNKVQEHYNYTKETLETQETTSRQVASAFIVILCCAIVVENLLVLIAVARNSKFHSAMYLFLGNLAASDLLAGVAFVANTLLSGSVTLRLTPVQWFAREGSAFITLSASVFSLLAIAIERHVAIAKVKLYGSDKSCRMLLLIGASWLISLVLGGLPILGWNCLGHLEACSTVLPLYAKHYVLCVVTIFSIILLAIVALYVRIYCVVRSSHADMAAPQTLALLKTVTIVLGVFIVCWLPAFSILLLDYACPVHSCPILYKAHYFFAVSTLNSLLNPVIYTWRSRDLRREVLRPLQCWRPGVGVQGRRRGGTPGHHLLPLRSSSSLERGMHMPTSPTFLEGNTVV
Text: as §1, §2, §3

Row | EC50 (Human S1P3 receptor) | intrinsic activity (i.a.) S1P3 (Human S1P3 receptor) | EC50 (Human S1P1 receptor) | intrinsic activity (i.a.) S1P1 (Human S1P1 receptor) | EC50 (Human S1P2 receptor) | intrinsic activity (i.a.) S1P2 (Human S1P2 receptor) | Structure (SMILES) | circulating lymphocytes (circulating lymphocytes) | adverse event [1]
1 |  |  |  |  |  |  | CCCCCCCCc1ccc(CCC(N)(CO)CO)cc1 [FTY 720] | decrease | transient asymptomatic bradycardia
2 | > 1000 nM | ~0.3 | 13 nM | 1 | 5 nM | 1 | CCCCCCCCCCc1ccc(CNC2CCC(C(=O)O)(C(=O)O)C2)cc1 (centres unmarked) [Example 12, 3-(4-decylbenzylamino)cyclopentane-1,1-dicarboxylic acid] |  | 
3 | > 1000 nM | ~0.3 | 6 nM | 1 | 4 nM | 1 | CCCCCCCCCc1ccc(CNC2CCC(C(=O)O)(C(=O)O)C2)cc1 (centres unmarked) [Example 3, 3-(4-nonylbenzylamino)cyclopentane-1,1-dicarboxylic acid] |  | 
